Test results reported in patent US20130274705A1, “FEEDBACK-BASED DIURETIC OR NATRIURETIC MOLECULE ADMINISTRATION” (MEDTRONIC, INC., priority 2012, published 2013).

Key:
[1] = system: anesthetized, mechanically ventilated male dog; assay: NICOM study: cardiac data in an anesthetized, mechanically ventilated dog; type: in vivo; conditions: measured by NICOM monitor
Excerpt: A noninvasive cardiac output monitoring (NICOM) monitor was utilized to measure cardiac data from an anesthetized, mechanically ventilated, 54 lb, 42 inch (nose to base of tail) male dog. FIGS. 20-24 depict the cardiac data measured by the NICOM monitor.
The gap in data at 11:20 indicates electrocautery interference when the chest of the dog was opened. FIG. 21 depicts the data in response to sequential fluid boluses. An approximate 20% increase in CO was detected reflecting changes in both SV and HR. […] FIG. 23 depicts the cardiodepressant effect of the ultra-short beta-blocker esmolol given after dobutamine and recalibration. […] FIG. 24 depicts the response to increasing blood pressure with phenylephrine followed by decreasing blood pressure with sodium nitroprusside (SNP). Prior to this intervention, the dog chest had been opened and commercially available flow monitors had been implanted on the pulmonary artery (PA). Baseline PA flow data, which was measured by the implantable monitors, was 2.7 L/min. The PA flow data measured by the NICOM monitor was 2.812 L/min.

[2] = system: canine model high-rate paced (HRP) to simulate HF; assay: Pharmacodynamic study of VD by continuous subcutaneous infusion in high-rate paced canine heart failure model; type: in vivo; conditions: SQ infusion 100 ng/kg·min
Experimental: FIGS. 16 and 17 show the mean right atrial pressure and the mean pulmonary capillary wedge pressure, respectively, for control and experimental groups of a canine model high-rate paced (HRP). A pharmaceutical formulation of VD was prepared in a Tris buffer. 16.0 g glycerol, 6.05 g tris-(hydroxymethyl)-aminomethane (“Tris”), 2.50 g meta cresol were mixed in a 1.00 L volumetric flask. Approximately 900 mL nanopure water was added to the volumetric flask and the mixture was magnetically stirred to reach complete dissolution. 4 normal hydrochloric acid was used to adjust pH to 7.3 at 25° C. Then, the flask was filled to 1 L mark with nanopure water. The pH was rechecked and verified to be 7.3 at 25° C. The pH 7.3 Tris buffer was stored at 2-8° C. until use.
Lyophilized VD peptide (Bachem) was weighted into a glass vial and dissolved into a known volume of the Tris buffer to a concentration between 1 mg/mL and 10 mg/mL. The VD peptide was dissolved by gentle mixing and the solution was allowed to rest for between 20 and 30 minutes. The pH of the solution was checked and adjusted to 7.3 with 0.1 N sodium hydroxide. The solution was filtered through a 0.22 micron sterile filter into a sterile glass vial and stored at 2 to 8° C. until use.
The pharmacodynamic effects of VD delivered by subcutaneous infusion were investigated in a canine model high-rate paced (HRP) to a heart rate of 240 bpm (ventricular pacing) over a period of 10 days to simulate HF. The canines were divided into a control group and an experimental group. The control group received a continuous subcutaneous infusion of the Tris buffer without VD over the course of the 10 day period. The experimental group received continuous subcutaneous infusion of VD dissolved in Tris buffer at a dosing rate of 100 ng/kg·min based upon the body weight of individual canines.
Seven days prior to the beginning of HRP (Day −7), all dogs were instrumented for ventricular pacing with an IPG (implantable pulse generator) including an RA (right atrium) and RV (right ventricle) lead, and a DSI ([…]) device in the femoral artery for arterial blood pressure monitoring. Glomerular filtration rate (GFR) was measured by iohexol clearance on the day before the beginning of HRP (Day −1). On Day 0, high-rate pacing was initiated at a rate of 240 BPM (beats per minute) and maintained continuously over the course of a 10 day period (Days 0-10). After HRP was started on Day 0, urine, blood, and hemodynamic data was collected from conscious animals to serve as a baseline. […]

[3] = system: Dahl/SS rats; assay: Pharmacodynamic study of VD in Dahl/SS rats on 4% salt diet (blood pressure); type: in vivo, rat; conditions: for blood pressure compared with 4% vehicle control group at week 3: week 3, p-value<0.05
Experimental: The pharmacodynamic effects of VD were investigated in a rat model. Forty male Dahl/SS rats were shipped to the animal facilities at PhysioGenix, Inc. (Milwaukee, Wis.). The rats were maintained on a low-salt diet and allowed to acclimate. After acclimation, animals had baseline parameters collected while on the low-salt diet. Baseline tail-cuff blood pressures and echocardiograms were measured. Baseline urine was collected for analysis of protein and albumin. Animals were then randomly assigned to one of 4 groups (10 animals per group):
1. Vehicle Control; low-salt diet, n=10 2. Vehicle Control; 4% salt diet, n=10 3. Vessel dilator, 100 ng/kg/min, 4% salt diet, n=10 4. Vessel dilator, 300 ng/kg/min, 4% salt diet, n=10
Lyophilized VD peptide (Bachem) was reconstituted in a Tris buffer having the same composition as the Tris buffer used in Example 7. The vehicle control groups were infused with a citrate-mannitol-saline buffer (0.66 mg/mL citric acid, 6.43 mg/mL sodium citrate, 40 mg/mL mannitol, 9 mg/mL NaCl). The animals were on a Teklad 7034 (low-salt) diet or Dyets AIN-76A 4% salt diet, as indicated, throughout a 6 week course of the study and had free access to water.
Alzet® minipumps (Durect, Corp.) were surgically implanted on Days 1, 15, and 29 of the study to maintain continuous vehicle or drug dispensing at the desired dose for a total period of 6 weeks. Urine was collected at baseline, 2, 4 and 6 weeks after the initiation of the treatment to assess proteinuria and albuminuria. After six weeks of treatment, the animals were then euthanized.

## CNC[C@H](O)c1cccc(O)c1 [Phenylephrine, phenylephrine]
[1]
  effect on cardiac output (CO): reduced CO
  effect on heart rate (HR): reflex slowing of the HR

## CC(CCc1ccc(O)cc1)NCCc1ccc(O)c(O)c1 (centres unmarked) [dobutamine]
[1]
  effect on cardiac output (CO): marked increase in CO

## COC(=O)CCc1ccc(OCC(O)CNC(C)C)cc1 (centres unmarked) [esmolol]
[1]
  effect on cardiac output (CO): marked decline in CO

## vessel dilator (EVVPPQVLSEPNEEAGAALSPLPEVPPWTGEVSPAQR; Vessel dilator; UniProt P01160 56-92, looked up) [VD, Natriuretic peptide of the ANP hormones; lyophilized VD peptide (Bachem) dissolved in Tris buffer]
[2]; Day 10, p-value<0.05
  increase in right atrial pressure compared with control group: significantly less than for the control group
[2]; HRP 240 bpm, 10 days
  change in mean right atrial pressure from Day 0 to Day 10: increased slightly
[2]; alpha 0.05, two-way repeated measures ANOVA
  difference in pulmonary capillary wedge pressure between control and experimental group on Day 10: does not appear to be statistically significant
[2]; versus control group
  extent of increase in pulmonary capillary wedge pressure from Day 0 to Day 10: smaller than that observed in the control group
[3]; high-dose VD 300 ng/kg/min SQ infusion
  blood pressure compared with vehicle control group on 4% salt diet: attenuated blood pressure
[3]; high-dose VD 300 ng/kg/min
  blood pressure compared with 4% vehicle control group at week 3: statistically significant decrease in blood pressure
  decrease in blood pressure compared with 4% vehicle control group at week 5: not as statistically significant
[3]; low-dose VD 100 ng/kg/min SQ infusion
  blood pressure compared with vehicle control group on 4% salt diet: attenuated blood pressure
[3]; low-dose VD 100 ng/kg/min
  blood pressure compared with 4% vehicle control group at week 3: statistically significant decrease in blood pressure
  decrease in blood pressure compared with 4% vehicle control group at week 5: not as statistically significant
